The assay has as its target T1, E. coli HslV peptidase (Escherichia coli, UniProt P0A7B8).
T1 construct: His tag (inferred from Ni-chelating purification and the pET20B+ vector); made in house; host or cells: E. coli BL21 (DE3), pET20B+ vector
The assay can be described thus: biochemical. The settings on record: recombinant E. coli HslV; substrate Z-Gly-Gly-Leu-AMC; in the absence of HslU; ED50 = concentration giving half maximal reaction velocity, from Vi/Vo plots; read-out: E. coli HslV activation (ED50 in μM). How it is done: ED50 values were calculated from the plots of Vi/Vo versus compound concentration in which Vi and Vo were the velocities in the presence and absence of the compound^20.
The HslV activation assays were carried out with recombinant E. coli HslV and HslU. Recombinant HslV and HslU were expressed in E. coli BL21 (DE3) cells containing pET20B+ vector. Purification of both proteins was carried out using Ni-chelating and ion-exchange chromatography as reported elsewhere^4.
Plots of HslV peptidase activity as a function of compound concentrations were constructed (FIG. 4).

T1 sequence (P0A7B8 2-176): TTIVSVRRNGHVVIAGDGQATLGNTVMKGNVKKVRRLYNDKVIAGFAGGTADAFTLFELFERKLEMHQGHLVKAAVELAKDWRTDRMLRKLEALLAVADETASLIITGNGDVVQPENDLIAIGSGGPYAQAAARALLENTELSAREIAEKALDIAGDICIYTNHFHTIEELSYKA

On to `O=c1c2ccccc2nc(-c2ccc([N+](=O)[O-])cc2)n1/N=C/c1c(O)ccc2ccccc12` [Compound 1, 3-[(E)-[(2-hydroxynaphthalen-1-yl)methylidene]amino]-2-(4-nitrophenyl)-3,4-dihydroquinazolin-4-one], for which the EC50 was 0.9 ± 0.25 µM.

As to `O=C(N/N=C/c1cc(=O)c2ccccc2o1)c1ccccc1` [Compound 2, N″-[(1E)-(4-oxo-4H-chromen-2-yl)methylidene]benzohydrazide], the EC50 turned out to be 1.3 ± 0.4 µM.
